Experimental findings from patent US8268862B2, “Sirtuin modulating compounds” (Sirtris Pharmaceuticals, Inc., priority 2007, dated 2012) are described below.

This experiment deals with T1, SIRT1 (Homo sapiens, UniProt Q96EB6).
T1 sequence (Q96EB6 1-747): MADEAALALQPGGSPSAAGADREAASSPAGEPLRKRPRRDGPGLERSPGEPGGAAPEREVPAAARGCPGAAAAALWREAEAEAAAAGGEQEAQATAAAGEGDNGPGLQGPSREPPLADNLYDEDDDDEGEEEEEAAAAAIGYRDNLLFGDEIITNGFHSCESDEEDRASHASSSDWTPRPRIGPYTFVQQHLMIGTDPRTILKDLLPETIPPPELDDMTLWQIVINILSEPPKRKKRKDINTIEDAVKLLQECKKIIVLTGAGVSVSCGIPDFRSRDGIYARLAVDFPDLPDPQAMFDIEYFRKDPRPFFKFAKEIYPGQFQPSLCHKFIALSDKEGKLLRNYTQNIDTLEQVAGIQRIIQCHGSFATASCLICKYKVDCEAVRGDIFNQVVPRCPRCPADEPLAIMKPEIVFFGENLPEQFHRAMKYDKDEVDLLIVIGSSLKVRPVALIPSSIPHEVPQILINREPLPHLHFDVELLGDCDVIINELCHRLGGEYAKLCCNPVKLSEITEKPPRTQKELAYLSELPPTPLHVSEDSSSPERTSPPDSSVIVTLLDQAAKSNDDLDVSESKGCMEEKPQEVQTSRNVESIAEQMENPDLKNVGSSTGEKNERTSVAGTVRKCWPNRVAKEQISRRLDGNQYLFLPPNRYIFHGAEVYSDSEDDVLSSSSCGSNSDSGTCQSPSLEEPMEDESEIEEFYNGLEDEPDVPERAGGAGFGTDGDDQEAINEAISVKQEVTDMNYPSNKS
Put plainly: mass spectrometry based SIRT1 deacetylation assay (activation). In kind it is biochemical. As to conditions: 0.5 μM peptide substrate, 120 μM βNAD+, 10 nM SIRT1, 25 min at 25° C.; for EC1.5 (concentration of test compound that results in 150% activation of SIRT1): NA = not active in the assay; for Emax: read-out: % FOLD ACT. (percent maximum fold activation of SIRT1). An excerpt: A mass spectrometry based assay was used to identify modulators of SIRT1 activity. The mass spectrometry based assay utilizes a peptide having 20 amino acid residues as follows: Ac-EE-K(biotin)-GQSTSSHSK(Ac)NleSTEG-K(5TMR)-EE-NH2 (SEQ ID NO: 1) wherein K(Ac) is an acetylated lysine residue and Nle is a norleucine. The peptide is labeled with the fluorophore 5TMR (excitation 540 nm/emission 580 nm) at the C-terminus. The sequence of the peptide substrate is based on p53 with several modifications. In addition, the methionine residue naturally present in the sequence was replaced with the norleucine because the methionine may be susceptible to oxidation during synthesis and purification.
Test compounds may be added to the reaction as described above. […] After the 25 minute incubation with SIRT1, 10 μL of 10% formic acid is added to stop the reaction. Reactions are sealed and frozen for later mass spec analysis. Determination of the mass of the substrate peptide allows for precise determination of the degree of acetylation (i.e. starting material) as compared to deacetylated peptide (product).
A control for inhibition of sirtuin activity is conducted by adding 1 μL of 500 mM nicotinamide as a negative control at the start of the reaction (e.g., permits determination of maximum sirtuin inhibition). A control for activation of sirtuin activity is conducted using 10 nM of sirtuin protein, with 1 μL of DMSO in place of compound, to determine the amount of deacetylation of the substrate at a given timepoint within the linear range of the assay. This timepoint is the same as that used for test compounds and, within the linear range, the endpoint represents a change in velocity.
For the above assay, SIRT1 protein was expressed and purified as follows. […] The protein was expressed by induction with 1 mM IPTG as an N-terminal His-tag fusion protein at 18° C. overnight and harvested at 30,000×g. Cells were lysed with lysozyme in lysis buffer (50 mM Tris-HCl, 2 mM Tris[2-carboxyethyl]phosphine (TCEP), 10 μM ZnCl2, 200 mM NaCl) and further treated with sonication for 10 min for complete lysis. The protein was purified over a Ni-NTA column (Amersham) and fractions containing pure protein were pooled, concentrated and run over a sizing column (Sephadex S200 26/60 global). The peak containing soluble protein was collected and run on an Ion-exchange column (MonoQ). Gradient elution (200 mM-500 mM NaCl) yielded pure protein. This protein was concentrated and dialyzed against dialysis buffer (20 mM Tris-HCl, 2 mM TCEP) overnight. The protein was aliquoted and frozen at −80° C. until further use.
Sirtuin modulating compounds that activated SIRT1 were identified using the assay described above and are shown below in Table 3. The EC1.5 values represent the concentration of test compounds that result in 150% activation of SIRT1. NT means that the compound was not tested using the indicated assay. NA means that the compound was not active in the indicated assay.

Regarding `COCCN1CCN(Cc2cnc3sc(-c4ccccc4NC(=O)c4cccc(-c5ccccc5)c4)nc3c2)CC1` [Compound 33], the “EC1.5 (concentration of test compound that results in 150% activation of SIRT1)” value is given as 91 NM and the Emax turned out to be 533%.
On to `COCCN1CCN(Cc2cnc3sc(-c4ccccc4NC(=O)c4cccc(-c5ccccn5)c4)nc3c2)CC1` [Compound 34], for which the “EC1.5 (concentration of test compound that results in 150% activation of SIRT1)” value was 281 NM and the Emax came to 492%.
The corresponding values for `COCCN1CCN(Cc2cnc3sc(-c4ccccc4NC(=O)c4cncc(-c5ccccc5)c4)nc3c2)CC1` [Compound 35] are 554 NM and 234%.
The like results for `O=C(Nc1ccccc1-c1nc2cc(CN[C@H]3CCNC3)cnc2s1)c1cccc(-c2ccccn2)c1` [Compound 37] were, in that order, 507 NM and 422%.
The corresponding values for `O=C(Nc1ccccc1-c1nc2cc(CN3CCOCC3)cnc2s1)c1cccc(-c2ncccn2)c1` [Compound 38] are 548 NM and 292%.
Consider `Cc1nc(-c2cccc(C(=O)Nc3ccccc3-c3nc4cc(CN5CCOCC5)cnc4s3)c2)cs1` [Compound 39], for which the “EC1.5 (concentration of test compound that results in 150% activation of SIRT1)” value was 400 NM and the Emax turned out to be 241%.
As to `O=C(Nc1ccccc1-c1nc2cc(CN3CCOCC3)cnc2s1)c1cccc(-n2cccn2)c1` [Compound 40], the “EC1.5 (concentration of test compound that results in 150% activation of SIRT1)” value was 182 NM and the Emax was 397%.
For `COCCN1CCN(Cc2cnc3sc(-c4ccccc4NC(=O)c4cccc(-c5csc(C)n5)c4)nc3c2)CC1` [Compound 41], the “EC1.5 (concentration of test compound that results in 150% activation of SIRT1)” value is 652 NM and the Emax turned out to be 275%.
`COCCN1CCN(Cc2cnc3sc(-c4ccccc4NC(=O)c4cccc(-c5ncccn5)c4)nc3c2)CC1` [Compound 42]: the “EC1.5 (concentration of test compound that results in 150% activation of SIRT1)” value is recorded as 656 NM and the Emax was 212%.
On to `O=C(Nc1ccccc1-c1nc2cc(CN3CC[C@@H](F)C3)cnc2s1)c1cccc(-n2cccn2)c1` [Compound 43], for which the “EC1.5 (concentration of test compound that results in 150% activation of SIRT1)” value came out at 215 NM and the Emax came to 236%.
As to `O=C(Nc1ccccc1-c1nc2cc(CN3CCNCC3)cnc2s1)c1cccc(-n2cccn2)c1` [Compound 44], the “EC1.5 (concentration of test compound that results in 150% activation of SIRT1)” value was 397 NM and the Emax turned out to be 603%.
The corresponding values for `COCCN1CCN(Cc2cnc3sc(-c4ccccc4NC(=O)c4cccc(-n5cccn5)c4)nc3c2)CC1` [Compound 45] are 144 NM and 569%.
The corresponding values for `Cc1nc(-c2cccc(C(=O)Nc3ccccc3-c3nc4cc(CN5CCNCC5)cnc4s3)c2)cs1` [Compound 46] are 503 NM and 446%.
In the case of `COCCN1CCN(Cc2cnc3sc(-c4ccccc4NC(=O)c4cccc(-c5ccccc5)n4)nc3c2)CC1` [Compound 47], the “EC1.5 (concentration of test compound that results in 150% activation of SIRT1)” value is on record as 82 NM.
For `O=C(Nc1ccccc1-c1nc2cc(CN3CCOCC3)cnc2s1)c1cccc(-c2ccccc2F)c1` [Compound 48], the “EC1.5 (concentration of test compound that results in 150% activation of SIRT1)” value amounted to 395 NM and the Emax is 222%.
The like results for `O=C(Nc1ccccc1-c1nc2cc(CN3CCOCC3)cnc2s1)c1cccc(-c2cccc(F)c2)c1` [Compound 49] were, in that order, 319 NM and 192%.
The corresponding values for `O=C(Nc1ccccc1-c1nc2cc(CN3CCOCC3)cnc2s1)c1cncc(-c2ccccc2F)c1` [Compound 50] are 533 NM and 207%.
The like results for `O=C(Nc1ccccc1-c1nc2cc(CN3CCOCC3)cnc2s1)c1cncc(-c2cccc(F)c2)c1` [Compound 51] were, in that order, 1640 NM and 172%.
Turning to `O=C(Nc1ccccc1-c1nc2cc(CN3CCOCC3)cnc2s1)c1cccc(-c2ccccc2F)n1` [Compound 52], the “EC1.5 (concentration of test compound that results in 150% activation of SIRT1)” value stood at 357 NM and the Emax turned out to be 411%.
Turning to `O=C(Nc1ccccc1-c1nc2cc(CN3CCOCC3)cnc2s1)c1cccc(-c2cccc(F)c2)n1` [Compound 53], the “EC1.5 (concentration of test compound that results in 150% activation of SIRT1)” value worked out at 66 NM and the Emax is 837%.
The like results for `O=C(Nc1ccccc1-c1nc2cc(CN3CC[C@@H](F)C3)cnc2s1)c1cccc(-c2cccc(F)c2)n1` [Compound 54] were, in that order, 110 NM and 538%.
`O=C(Nc1ccccc1-c1nc2cc(CN3CCOCC3)cnc2s1)c1cccc(-c2ccccc2)n1` [Compound 55]: the “EC1.5 (concentration of test compound that results in 150% activation of SIRT1)” value amounted to 74 NM and the Emax was > 500%.
The corresponding values for `COCCN1CCN(Cc2cnc3sc(-c4ccccc4NC(=O)c4ccnc(-c5ccccc5)c4)nc3c2)CC1` [Compound 56] are 458 NM and 389%.
The corresponding values for `COCCN1CCN(Cc2cnc3sc(-c4ccccc4NC(=O)c4cccc(-c5cccc(F)c5)n4)nc3c2)CC1` [Compound 57] are 41 NM and > 500%.
The corresponding values for `COCCN1CCN(Cc2cnc3sc(-c4ccccc4NC(=O)c4cccc(-c5cccnc5)c4)nc3c2)CC1` [Compound 58] are 884 NM and 370%.
Consider `COCCN1CCN(Cc2cnc3sc(-c4ccccc4NC(=O)c4cccc(-c5ccncc5)c4)nc3c2)CC1` [Compound 59], for which the “EC1.5 (concentration of test compound that results in 150% activation of SIRT1)” value is given as 492 NM and the Emax stood at 279%.
The like results for `O=C(Nc1ccccc1-c1nc2cc(CN3CCCC3)cnc2s1)c1cccc(-c2ccccc2)n1` [Compound 60] were, in that order, 144 NM and 477%.
The corresponding values for `O=C(Nc1ccccc1-c1nc2cc(CN3CCCC3)cnc2s1)c1cccc(-c2cccc(F)c2)n1` [Compound 61] are 78 NM and > 500%.
The corresponding values for `O=C(Nc1ccccc1-c1nc2cc(CN3CCNCC3)cnc2s1)c1cc(-c2ccccc2)no1` [Compound 62] are 592 NM and 231%.
On to `O=C(Nc1ccccc1-c1nc2cc(CN3CCNCC3)cnc2s1)c1cnc2ccccc2n1` [Compound 63], for which the “EC1.5 (concentration of test compound that results in 150% activation of SIRT1)” value was determined as 859 NM and the Emax is 303%.
The corresponding values for `O=C(Nc1ccccc1-c1nc2cc(CN3CCNCC3)cnc2s1)c1ccc2ccccc2n1` [Compound 64] are 260 NM and > 500%.
As for `O=C(Nc1ccccc1-c1nc2cc(CN3CCOCC3)cnc2s1)c1cnc2ccccc2n1` [Compound 65], the Emax came out at 100%.
